Drawing on ChEMBL document CHEMBL1134524, “Utilization of an intramolecular hydrogen bond to increase the CNS penetration of an NK(1) receptor antagonist” (J Med Chem, 2001), this text covers IC50 and minimal effective dose for six compounds.

Substance-P receptor, sequence (P25103 whole entry): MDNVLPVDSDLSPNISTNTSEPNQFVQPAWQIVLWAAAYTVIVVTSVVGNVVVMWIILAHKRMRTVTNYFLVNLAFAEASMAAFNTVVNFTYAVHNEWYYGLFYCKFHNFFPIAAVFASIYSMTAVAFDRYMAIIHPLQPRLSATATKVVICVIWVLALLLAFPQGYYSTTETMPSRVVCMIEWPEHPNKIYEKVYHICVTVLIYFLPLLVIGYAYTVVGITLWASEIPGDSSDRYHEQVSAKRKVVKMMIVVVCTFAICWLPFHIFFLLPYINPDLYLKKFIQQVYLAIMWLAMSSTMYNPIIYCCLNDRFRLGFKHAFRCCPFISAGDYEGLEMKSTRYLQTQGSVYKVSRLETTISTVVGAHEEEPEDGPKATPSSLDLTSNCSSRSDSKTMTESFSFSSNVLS

The first assay addresses Substance-P receptor (Homo sapiens, UniProt P25103). The experiment in a line: Inhibition of specific binding at tachykinin receptor 1.
Settings: not given
By IC50 is commonly meant the concentration needed to halve the response being measured. Read a low IC50 as greater potency in that assay. As to `COC[C@](Cc1c[nH]c2ccccc12)(NC(=O)OCc1cc2ccccc2o1)C(=O)N[C@@H](C)c1ccccc1`, the IC50 came to 0.7 nM.

`CC(C)C[C@](Cc1c[nH]c2ccccc12)(NC(=O)OCc1cc2ccccc2o1)C(=O)N[C@@H](C)c1ccccc1` came in with an IC50 of 3.79 nM.

Consider `CCC[C@](Cc1c[nH]c2ccccc12)(NC(=O)OCc1cc2ccccc2o1)C(=O)N[C@@H](C)c1ccccc1`, for which the IC50 was determined as 0.85 nM.

For `C[C@H](NC(=O)[C@](Cc1c[nH]c2ccccc12)(CN(C)C)NC(=O)OCc1cc2ccccc2o1)c1ccccc1`, the IC50 was determined as 0.46 nM.

As for `CC[C@](Cc1c[nH]c2ccccc12)(NC(=O)OCc1cc2ccccc2o1)C(=O)N[C@@H](C)c1ccccc1`, the IC50 is 0.96 nM.

As for `C[C@H](NC(=O)[C@@H](Cc1c[nH]c2ccccc12)NC(=O)OCc1cc2ccccc2o1)c1ccccc1`, the IC50 was determined as 0.73 nM.

For another assay, the system named is Meriones unguiculatus. The experiment in a line: Minimal effective dose to antagonize the foot tapping response when administered subcutaneously (0.1-10 mg/kg) in gerbil. The following applies: sc, read-out: MED.
As for `C[C@H](NC(=O)[C@](Cc1c[nH]c2ccccc12)(CN(C)C)NC(=O)OCc1cc2ccccc2o1)c1ccccc1`, the minimal effective dose is 1 mg/kg.
